The structures appear in SMILES notation.

The conditions of data set [1]: relative to 2,3,7,8-TCDD = 1.0; cited from earlier work.
Data set [2] relates to antibody in serum immobilized on goat anti-rabbit second antibody coated tubes. The data set can be described thus: Enzyme immunoassay (EIA) with HRP competitor or Hapten I conjugates, Aroclor 1248 analyte (Method D). In kind it is binding. The note with it: for Assay Response (I50): assay solution concentration of Aroclor 1248 producing 50% reduction in assay control signal, HRP conjugate of the listed competitor; for Relative Response: improvement in I50 sensitivity compared to homologous (Hapten I) based assay. How it is done:
Serum stored at -20° C. was diluted 1,000-40,000 fold with PBS which contained 0.1% Tween-20. This solution was dispensed (500 μl) into goat anti-rabbit second antibody coated tubes (GAR Tubes commercially available from Millipore Corp., Bedford, Mass.) and incubated at room temperature overnight. The antisera solution was decanted from the tubes and the tubes were washed 3 times with distilled water. Non-specific sites in the tubes were blocked with 600 μl of a BSA blocking buffer (EIA Blocking Buffer commercially available from Millipore Corp., Bedford, Mass.) and incubated for 2 hours at room temperature or overnight at 4° C. The blocking buffer was decanted and the tubes allowed to dry under ambient room conditions for 2 hours or overnight. The assay was performed by adding 500 μl of assay diluent (1% methanol (v/v) and 0.005% Tween-20 (w/v) in distilled water) to the required number of tubes followed by 10 μl of a methanol solution which contained 0-50 ppm of Aroclor 1248. After a 5 minute incubation at room temperature, the solution was decanted and the tubes rinsed 3-4 times with tap water. The horseradish peroxidase-(HRP) competitor conjugate or Hapten I conjugates were diluted 100-100,000 fold from 2-5 mg/ml stock solutions in PBS with conjugate diluent (Enzyme Conjugate Diluent commercially available from Millipore Corp., Bedford, Mass.). Enzyme-competitor conjugate was added in 200 μl and the tubes were incubated at room temperature for 5 minutes. The conjugate solution was decanted and the tubes rinsed 3-4 times with tap water. Enzyme substrate solution (500 μl, KPL No. 50-76-04 commercially available from KPL Laboratories, Gaithersburg, Md.) was added and the tubes were incubated at room temperature for 3-15 minutes. The enzyme reaction was stopped with the addition of 500 μl of 1N HCl. The OD of the solution was determined at 450 nm and the I50 values were determined using a correlation of Log (Aroclor 1248 Concentration in the assay solution in parts per billion=ppb) versus B/Bo ratio where B=Sample Absorbance and Bo=Absorbance of the Blank Sample.
The competitors and Hapten I were conjugated to the enzyme, amino modified Horseradish Peroxidase (HRP) (horseradish peroxidase commercially available from Sigma Chemical Co. (No. P-6782), St. Louis, Mo.; amino modified per ref R. Hsiao and H. Royer, Archives Biochem. Biophysics, 198, 379-385 (1979) to give 6-24 free amines), using the carbodiimide mediated carboxyl activation procedure described for Hapten I in Example 5.
EIA analysis of Aroclor 1248 (Method D) was performed using horseradish peroxidase (HRP) Conjugates of the competitors illustrated in FIG. 4.

Data set [3] concerns Hapten VII sera (polyclonal antibodies). Put plainly: Sera direct EIA with Hapten VII sera and competitor enzyme conjugate. The class given is binding, mice. The settings on record: for Assay sensitivity versus Hapten VII enzyme conjugate based assay: in words, Table 6. How it is done: The competitors A-E and Hapten VII were conjugated to the enzyme, amino modified Horseradish Peroxidase (HRP) (horseradish peroxidase commercially available from Sigma Chemical Co. (No. P-6782), St. Louis, Mo.; amino modified per R. Hsiao and H. Royer, Archives Biochem. Biophys., 198, 379-385 (1979) to give 6-24 free amines), using the carbodiimide mediated carboxyl activation procedure described for Hapten VII in Example 24. Hapten and competitor load were determined by UV/Vis spectroscopy, also as described for Hapten VII.
The direct EIA (immoblized antibody and competitor enzyme conjugate) was performed as follows. Serum or monoclonal antibody supernatant stored at -20° C. was diluted 1,000-40,000 fold with PBS which contained 0.1% Tween-20. This solution was dispensed (500 ul) into donkey anti-mouse second antibody coated tubes (DAM Tubes commercially available from Millipore Corp., Bedford, Mass.) and incubated at room temperature overnight. The antisera solution was decanted from the tubes and the tubes washed 3 times with distilled water. Non-specific sites in the tubes were blocked with 600 ul of BSA blocking buffer (EIA Blocking Buffer commercially available from Millipore Corp., Bedford, Mass.) and incubated for 2 hours at room temperature or overnight at 4° C. The blocking buffer was decanted and the tubes allowed to dry under ambient room conditions for at least 2 hours. The assay was performed by adding 500 ul of assay diluent (1% methanol (v/v) and 0.005% Tween-20 (w/v) in distilled water) to the required number of tubes followed by 10 ul of a methanol solution of the analyte (PCB congener). After a 5 minute incubation at room temperature, the solution was decanted and the tubes rinsed 3-4 times with tap water. The horseradish peroxidase competitor or Hapten VII conjugates were diluted 1,000-60,000 fold from 2-5 mg/ml stock solutions in PBS with conjugate diluent (Enzyme Conjugate Diluent commercially available from Millipore Corp., Bedford, Mass.). The enzyme conjugate (200 ul) was added to the tubes followed by a 5 minute incubation at room temperature. The conjugate solution was decanted and the tubes rinsed 3-4 times with tap water. Enzyme substrate solution (500 ul, KPL No. 50-76-04 commercially available from KPL Laboratories, Gaithersburg, Md.) was added and the tubes were incubated at room temperature for 5-15 minutes. The enzyme reaction was stopped with the addition of 500 ul of 1N HCl. The OD of the solution was determined at 450 nm. The data was plotted using Log (Congener Concentration) versus B/Bo (B=Sample Absorbance, Bo=Sample Blank Absorbance).
The direct EIA (Method 19) was used to evaluate sera samples taken on day 120.

[4] abbreviates: Table 6, I50 of analyte 3,3',4,4'-tetrachlorobiphenyl with the listed competitor, Hapten VII sera.
The mark [5] stands for this setting: Table 7, Hapten VII sera and Competitor D direct EIA.

As to `Clc1ccc(-c2ccc(Cl)cc2Cl)cc1` [2,4,4',trichloro-], in data set [1], the TEF result is “less than 0.00001”.

With `O=C(O)CCCC(=O)Nc1ccc(Cl)c(Cl)c1` [Competitor 13], in data set [2], the “Assay Response (I50)” value was 2000 ppb and the “Relative Response” value was below 1 fold. As for `O=C(O)CCCSc1cc(Cl)ccc1Cl` [Competitor 17], in data set [2], the “Assay Response (I50)” value was 33 ppb and the “Relative Response” value amounted to 18 fold.

As to `Clc1cc(Cl)c(-c2cc(Cl)c(Cl)c(Cl)c2)cc1Cl` [BZ No. 167, 2,3',4,4',5,5-hexa], the TEF in data set [1] was 0.001. Regarding `Clc1ccc(-c2ccccc2Cl)cc1` [2,4'-dichloro-], the TEF result in data set [1] is “less than 0.00001”. Regarding `Clc1ccc(-c2ccc(Cl)c(Cl)c2Cl)cc1Cl` [BZ No. 105, 2,3,3',4,4'-penta], the TEF in data set [1] is on record as 0.001. For `Clc1cc(-c2ccc(Cl)c(Cl)c2Cl)cc(Cl)c1Cl` [BZ No. 157, 2,3,3',4,4',5-hexa], the TEF in data set [1] is 0.00002.

In the case of `Clc1ccc(-c2cc(Cl)c(Cl)c(Cl)c2Cl)cc1Cl` [BZ No. 156, 2,3,3',4,4',5-hexa], the TEF in data set [1] is listed as 0.001.

Molecule `O=C(O)CCCC(=O)c1ccc(Cl)c(Cl)c1` [Competitor D] yielded an I50 in data set [3] (setting [4]) of 3 ppb. Also, in data set [3], the “Assay sensitivity versus Hapten VII enzyme conjugate based assay” value is “significantly more sensitive”.

As for `Clc1ccc(-c2cc(Cl)c(Cl)c(Cl)c2)cc1` [BZ No. 81, 3,4,4',5-tetra], in data set [1], the TEF is 0.01. On to `O=C(O)CCCC(=O)c1ccc(Cl)c(Cl)c1` [Competitor 12], for which, in data set [2], the “Assay Response (I50)” value was found to be 23 ppb and the “Relative Response” value is given as 24 fold. On to `Clc1cc(-c2cc(Cl)c(Cl)c(Cl)c2Cl)cc(Cl)c1Cl` [BZ No. 189, 2,3,3',4,4',5,5'-hepta], for which the TEF in data set [1] was 0.001. For the molecule `O=C(O)CCCCCOc1ccc(-c2ccc(Cl)c(Cl)c2)cc1Cl` [Hapten VII, 6-(3,3',4'-Trichlorobiphenyloxy)-4-yl hexanoic acid], the I50 in data set [3] (setting [4]) is 30-40 ppb. As to `Clc1cc(-c2cc(Cl)c(Cl)c(Cl)c2)cc(Cl)c1Cl` [BZ No. 169, 3,3',4,4',5,5-hexa], the TEF in data set [1] was 0.05. As for `Clc1ccc(Cl)c(-c2cc(Cl)ccc2Cl)c1` [2,2',5,5'-tetrachloro], in data set [3] (setting [5]), the I50 was > 20,000 ppb. Also, in data set [1], the TEF entry is listed as “less than 0.00001”. As for `Clc1ccc(-c2cc(Cl)c(Cl)c(Cl)c2Cl)cc1` [BZ No. 114, 2,3,4,4',5-penta], in data set [1], the TEF was 0.0001.

For `Clc1ccc(-c2cc(Cl)c(Cl)c(Cl)c2)c(Cl)c1` [BZ No. 123, 2,3',4,4',5'-penta], the TEF in data set [1] is recorded as 0.001. In the case of `O=C(O)CCCOc1ccc(Cl)c(Cl)c1` [Competitor 16], in data set [2], the “Assay Response (I50)” value is recorded as 31 ppb and the “Relative Response” value worked out at 18 fold. Turning to `Clc1cc2c(cc1Cl)Oc1cc(Cl)c(Cl)cc1O2` [2,3,7,8-TCDD, 2,3,7,8-tetrachlorodibenzo-p-dioxin], the TEF in data set [1] is 1.0. In the case of `Clc1ccc(-c2cc(Cl)c(Cl)cc2Cl)cc1Cl` [BZ No. 118, 2,3',4,4',5-penta], the TEF in data set [1] is 0.00. Regarding `O=C(O)CCCOc1ccc(Cl)cc1Cl` [Competitor 15], in data set [2], the “Assay Response (I50)” value turned out to be 49 ppb and the “Relative Response” value is on record as 12 fold. Take `O=C(O)CCCSc1cc(Cl)ccc1Cl` [Competitor C]: the I50 in data set [3] (setting [4]) came out at 1.5 ppb. For the same molecule, the “Assay sensitivity versus Hapten VII enzyme conjugate based assay” value in data set [3] is “significantly more sensitive”. For the molecule `Clc1ccc(-c2ccc(Cl)cc2)cc1` [4,4'-dichloro], in data set [3] (setting [5]), the I50 is 4,300 ppb. Turning to `Clc1ccc(Cl)c(-c2ccccc2Cl)c1` [2,2',5-trichloro-], the TEF result in data set [1] was “less than 0.00001”. Take `O=C(O)CCCCCOc1ccc(-c2cc(Cl)c(Cl)cc2Cl)c(Cl)c1` [Hapten I, 6-(2,2',4',5'-Tetrachlorobiphenyloxy)-4-yl hexanoic acid]: in data set [2], the “Assay Response (I50)” value is 570 ppb. As to `O=C(O)CCCCc1cc(Cl)ccc1Cl` [Competitor 11], in data set [2], the “Assay Response (I50)” value was 18 ppb and the “Relative Response” value was determined as 32 fold. For `O=C(O)C=Cc1ccc(Cl)c(Cl)c1` [Competitor 14], in data set [2], the “Assay Response (I50)” value is reported as 64 ppb and the “Relative Response” value came out at 9 fold.

`O=C(O)CCc1ccc(Cl)c(Cl)c1` [Competitor 9]: in data set [2], the “Assay Response (I50)” value worked out at 47 ppb and the “Relative Response” value is reported as 12 fold. As to `Clc1ccc(-c2cc(Cl)c(Cl)cc2Cl)c(Cl)c1` [2,2',4,4',5-pentachloro-], the TEF entry in data set [1] is “less than 0.00001”. The molecule `O=C(O)CCCOc1ccc(Cl)c(Cl)c1` [Competitor B] displayed an I50 in data set [3] (setting [4]) of 3.5 ppb. For the same molecule, the “Assay sensitivity versus Hapten VII enzyme conjugate based assay” value in data set [3] is reported as “significantly more sensitive”.

These data come from patent US6204005A, “Immunoassay for toxic congeners of polychlorinated biphenyls” (priority 1995, dated 2001).
